In US11078205B2, “Selective inhibitors of protein arginine methlytransferase 5 (PRMT5)” (Prelude Therapeutics, Incorporated, priority 2017, dated 2021):
In brackets after ≈: the same amount, converted by molar mass. Each block holds one compound with its values, some of them ahead of it.

What was measured:
physchem = details: 25 °C, thermodynamic from solid
sDMA in tumor samples = test: sDMA levels in Granta-519 xenograft tumor samples by western blot; assay type: in vivo, mouse; details: 12 hours after last dosing
Protocol: Granta-519 cells was maintained in DMEM medium supplemented with 10% fetal bovine serum and 2 mM L-Glutamine at 37° C. in an atmosphere of 5% CO2 in air. Cells in exponential growth phase were harvested and 1×10^7 cells in 0.1 mL of PBS with Matrigel (1:1) were injected subcutaneously at the right lower flank region of each mouse for tumor development. The treatments were started when the mean tumor size reaches approximately 300-400 mm^3. […] Example 47 or vehicle (0.5% Na CMC+0.5% Tween80, suspension) were administered orally (QD for Example 47, QD for vehicle) at a dose of 30 mg/kg and 50 mg/kg for 19 and 16 days, respectively. Body weights and tumor size were measured every 3 to 4 days after randomization. Animals were euthanized 12 hours after last dosing, and blood and tumor samples were collected for analysis.
To measure sDMA levels in tumor samples, tumors from each mouse were weighted and homogenized in RIPA buffer supplemented with protease inhibitor (cOmplete™, EDTA-free Protease Inhibitor Cocktail, Roche). Lysate were centrifuged at 14,000 rpm for 30 min at 4° C. to remove debris. Total protein concentrations of lysate were determined by BCA assay (ThermoFisher Scientific, Catalog #: 23225). Equal amount of total proteins from each tumor were separated on SDS-PAGE gel, and sDMA levels were determined by WB as described previously.

PRMT5/MEP50 complex = PRMT5/MEP50 complex (Homo sapiens (Human), UniProt O14744); test: Biochemical assay: PRMT5/MEP50 methylation of histone H2A with 3H-SAM, filter plate scintillation; details: histone H2A 5 μM, SAM 1 μM, PRMT5/MEP50 5 nM
Protocol: Biochemical Assay Protocol
Compounds were solubilized and 3-fold diluted in 100% DMSO. […] Standard reactions were performed in a total volume of 50 μl in assay buffer, with histone H2A (5 μM final) as substrate. To this was added the PRMT5/MEP50 complex diluted to provide a final assay concentration of 5 nM and the compounds were allowed to preincubate for 15 to 20 minutes at room temperature. The reaction was initiated by adding S-[3H-methyl]-adenosyl-L-methionine (PerkinElmer) to final concentration of 1 μM. Following a 60 minutes incubation at 30° C., the reaction was stopped by adding 100 μL of 20% TCA. Each reaction was spotted onto filter plate (Multi Screen FB Filter Plate, Millipore), and washed 5 times with PBS buffer, Scintillation fluid was added to the filter plate and read in a scintillation counter. IC50 values were determined by fitting the data to the standard 4 parameters with Hill Slope using GraphPad Prism software.

Sequence of PRMT5/MEP50 complex (O14744 whole entry): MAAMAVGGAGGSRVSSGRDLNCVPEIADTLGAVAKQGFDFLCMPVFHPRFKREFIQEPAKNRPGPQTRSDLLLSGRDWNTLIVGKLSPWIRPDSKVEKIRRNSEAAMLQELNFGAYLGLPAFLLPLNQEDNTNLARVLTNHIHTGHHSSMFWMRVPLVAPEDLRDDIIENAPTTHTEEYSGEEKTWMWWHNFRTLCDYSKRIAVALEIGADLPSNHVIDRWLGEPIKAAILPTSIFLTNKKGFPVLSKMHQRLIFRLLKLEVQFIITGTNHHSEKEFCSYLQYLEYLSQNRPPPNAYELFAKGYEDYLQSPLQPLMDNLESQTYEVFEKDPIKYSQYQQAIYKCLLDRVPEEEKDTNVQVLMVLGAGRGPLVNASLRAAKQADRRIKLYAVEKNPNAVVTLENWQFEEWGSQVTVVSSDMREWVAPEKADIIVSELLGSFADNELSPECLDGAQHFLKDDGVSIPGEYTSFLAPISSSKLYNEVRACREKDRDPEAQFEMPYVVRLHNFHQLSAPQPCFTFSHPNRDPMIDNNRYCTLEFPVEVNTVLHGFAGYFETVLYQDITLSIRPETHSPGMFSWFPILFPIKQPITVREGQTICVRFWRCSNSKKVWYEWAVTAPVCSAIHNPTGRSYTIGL
Sequence of PRMT5/MEP50 complex (Q9BQA1 whole entry partner): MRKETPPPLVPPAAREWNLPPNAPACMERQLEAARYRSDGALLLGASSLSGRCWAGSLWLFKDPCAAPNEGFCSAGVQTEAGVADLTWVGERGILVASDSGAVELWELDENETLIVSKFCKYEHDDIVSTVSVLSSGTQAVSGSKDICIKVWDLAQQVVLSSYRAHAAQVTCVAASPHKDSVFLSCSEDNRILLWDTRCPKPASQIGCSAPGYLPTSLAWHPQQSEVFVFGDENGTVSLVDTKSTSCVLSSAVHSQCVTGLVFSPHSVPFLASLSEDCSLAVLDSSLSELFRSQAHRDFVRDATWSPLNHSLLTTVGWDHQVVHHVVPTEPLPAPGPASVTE

solubility at 4 h (physchem; fassif): < 2 µg/mL
Structure (SMILES): O=C1C(O)=C([C@H]2CC[C@H](c3ccc(Cl)cc3)CC2)C(=O)c2ccccc21 [Atovaquone]

Structure (SMILES): C[C@@]1(O)[C@@H]([C@H](O)c2ccc(Cl)c(Cl)c2)O[C@@H](n2ccc3c(N)ncnc32)[C@@H]1O [Example 47, (2R,3S,4R,5R)-5-(4-amino-7H-pyrrolo[2,3-d]pyrimidin-7-yl)-2-((R)-(3,4-dichlorophenyl)(hydroxy)methyl)-3-methyltetrahydrofuran-3,4-diol]
inhibition of sDMA (sDMA in tumor samples; 30 mg/kg orally QD): > 90%
sDMA level in tumor (sDMA in tumor samples; 50 mg/kg orally QD): no detectable sDMA

IC50 (PRMT5/MEP50 complex): 707 nM
Structure (SMILES): C[C@@]1(O)[C@@H]([C@@H](O)c2ccc(Cl)c(Cl)c2)O[C@@H](n2ccc3c(N)ncnc32)[C@@H]1O [Example 66, (2R,3S,4R,5R)-5-(4-amino-7H-pyrrolo[2,3-d]pyrimidin-7-yl)-2-((S)-(3,4-dichlorophenyl)(hydroxy)methyl)-3-methyltetrahydrofuran-3,4-diol]

solubility at 4 h (physchem): 10 to 25 µg/mL (≈ 32.4 to 81.1 µM)
Structure (SMILES): CC(=O)CC(c1ccccc1)c1c(O)c2ccccc2oc1=O (centres unmarked) [Warfarin]
